Source: paper PMC11945236 (Molecules, 2025)

Legend:
SARS-CoV-2 M^pro = SARS-CoV-2 M^pro (Severe acute respiratory syndrome coronavirus 2, UniProt P0DTD1); test: biochemical; details: for inhibition at 10 µM: read-out: Enzymatic Inhibition Rate (%), primary screening, 10 μM, incubation for 5 min
[1] = MTT cytotoxicity assay, HFF-1 cells; format: cell-based; details: human
Method: (§1) The human HFF-1 and monkey Vero E6 cells were provided by Cell Bank in Shanghai, Chinese Academy of Sciences. HFF-1 cells were cultured in DMEM complete medium containing 15% FBS, 100 U/mL penicillin, and 100 μg/mL of streptomycin, while Vero E6 cells were maintained in DMEM complete medium containing 10% FBS. They were maintained at 37 °C in a humidified atmosphere with 5% CO2 (V/V).
(§2) The in vitro cytotoxicity of compounds was determined by the standard MTT assay according to our reported procedure. Briefly, well-cultured cells were seeded in 96-well plates at a density of 5 × 10^3 cells per well. After being cultured overnight in a 37 °C humidified incubator (5% CO2, V/V), cells were incubated with tested compounds for 48 h. Then, cells in each well were treated with MTT in PBS (5 mg/mL) for 4 h at 37 °C, and formazan crystals in viable cells were dissolved by dimethyl sulfoxide (150 μL) at ambient temperature. The absorbance of solubilized formazan was measured by the Synergy multimode reader (BioTek, Winooski, VT, American) at the wavelength of 490 nm.

[2] = MTT cytotoxicity assay, Vero E6 cells; format: cell-based; details: African green monkey
Method: as §1, §2

[3] = system: SARS-CoV-2 N proteins in Vero E6 cells; test: Immunofluorescence assay for viral N proteins in infected Vero E6 cells; format: cell-based; details: 10 μM, 48 h
Method: Human Vero E6 cells were infected by live SARS-CoV-2 at an MOI value of 0.01. […] Then, cells in each group were collected and the immunofluorescence assay was used to detect the expression of viral N protein, and the result was analyzed by high-content screening.

adenovirus = details: concentrations from 0.0156 μM to 1 μM; cited from earlier work
[4] = experimental value; cited from earlier work

SMILES: COc1cc(C(CC=C(C)C)OCCC(C)C)c(OC)c2c1C(=O)C=CC2=O (stereo not shown) [Compound 4, 6-(1-(Isopentyloxy)-4-methylpent-3-en-1-yl)-5,8-dimethoxy Naphthalene-1,4-dione]
- inhibition at 10 µM (SARS-CoV-2 M^pro): 10.6%

SMILES: COc1cc(C(CC=C(C)C)OCCC(C)C)c(OC)c2c1/C(=N/O)C=C/C2=N\O (stereo not shown) [Compound 5, (1E,4E)-6-(1-(Isopentyloxy)-4-methylpent-3-en-1-yl)-5,8-dimethoxynaphthal-ene-1,4-dione Dioxime]
- inhibition at 10 µM (SARS-CoV-2 M^pro): ~36%

SMILES: COc1cc(C(CC=C(C)C)OCCC(C)C)c(OC)c2c1/C(=N/OC(=O)c1ccccc1)C=C/C2=N\OC(=O)c1ccccc1 (stereo not shown) [Compound 6, (1E,4E)-6-(1-(Isopentyloxy)-4-methylpent-3-en-1-yl)-5,8-dimethoxynaphthalene-1,4-dione O,O-Dibenzoyl Dioxime]
- Enzymatic Inhibition Rate (%) (SARS-CoV-2 M^pro; primary screening, 10 μM, incubation for 5 min): complete loss of activity
- inhibition at 10 µM (SARS-CoV-2 M^pro): -6.9%

SMILES: COc1cc(C(CC=C(C)C)OCCCCC(C)O)c(OC)c2c1/C(=N/O)C=C/C2=N\O (stereo not shown) [Compound 9, (1E,4E)-6-(1-((5-Hydroxyhexyl)oxy)-4-methylpent-3-en-1-yl)-5,8-dimethoxy Naphthalene-1,4-dione Dioxime]
- inhibition at 10 µM (SARS-CoV-2 M^pro): 10.7%

SMILES: COc1cc(C(CC=C(C)C)OCCCCCCCCO)c(OC)c2c1/C(=N/O)C=C/C2=N\O (stereo not shown) [Compound 10, (1E,4E)-6-(1-((8-Hydroxyoctyl)oxy)-4-methylpent-3-en-1-yl)-5,8-dimethoxy Naphthalene-1,4-dione Dioxime]
- inhibition at 10 µM (SARS-CoV-2 M^pro): 11.3%

SMILES: COc1cc(C(CC=C(C)C)OC(=O)C=Cc2ccccc2)c(OC)c2c1/C(=N/O)C=C/C2=N\O (stereo not shown) [Compound 12, 1-((5E,8E)-5,8-bis(Hydroxyimino)-1,4-dimethoxy-5,8-dihydronaphthalen-2-yl)-4-methylpent-3-en-1-yl Cinnamate]
- inhibition at 10 µM (SARS-CoV-2 M^pro): 28%

SMILES: COc1cc([C@@H](CC=C(C)C)OCCC(C)C)c(OC)c2c1/C(=N/O)C=C/C2=N\O [Compound 14, (1E,4E)-6-((R)-1-(Isopentyloxy)-4-methylpent-3-en-1-yl)-5,8-dimethoxy Naphthalene-1,4-dione Dioxime]
- IC50 (SARS-CoV-2 M^pro): 22.8 ± 4.61 µM

SMILES: COc1cc([C@H](CC=C(C)C)OCCC(C)C)c(OC)c2c1/C(=N/O)C=C/C2=N\O [Compound 15, (1E,4E)-6-((S)-1-(Isopentyloxy)-4-methylpent-3-en-1-yl)-5,8-dimethoxy Naphthalene-1,4-dione Dioxime]
- IC50 (SARS-CoV-2 M^pro): 12.5 ± 3.59 µM

SMILES: CC(C)=CC[C@@H](O)C1=CC(=O)c2c(O)ccc(O)c2C1=O [Shikonin]
- inhibition at 10 µM (SARS-CoV-2 M^pro): 51.4%
- CC50 at 48 h [1]: 1.31 ± 0.09 µM
- CC50 at 48 h [2]: 1.48 ± 0.06 µM
- blue fluorescence (DAPI) from the live cell nucleus [3]: almost invisible
- expression of viral N proteins versus untreated cells ([3]; MOI 0.01): significantly decreased expression of viral N proteins
- inhibitory effects against adenovirus (adenovirus): showed inhibitory effects against adenovirus
- LogP [4]: 1.08
